Reference: BindingDB's records for doi:10.1016/j.ejmech.2018.09.013 (Wuhan Institute of Technology, 2018)

Tests used:
[1] = Inhibition of HIV1 LAI reverse transcriptase infected in human MT4 cells assessed as protection against virus-induced cytopathic effect by MTT assay
[2] = Inhibition of HIV1 reverse transcriptase L100I mutant infected in human MT4 cells assessed as protection against virus-induced cytopathic effect by MTT assay
[3] = Inhibition of HIV1 reverse transcriptase Y188L mutant infected in human MT4 cells assessed as protection against virus-induced cytopathic effect by MTT assay
[4] = Inhibition of HIV1 reverse transcriptase K103N mutant infected in human MT4 cells assessed as protection against virus-induced cytopathic effect by MTT assay
[5] = Inhibition of HIV1 reverse transcriptase Y181C mutant infected in human MT4 cells assessed as protection against virus-induced cytopathic effect by MTT assay
[6] = Inhibition of HIV1 reverse transcriptase L100I/K103N double mutant infected in human MT4 cells assessed as protection against virus-induced cytopathic effect by MTT assay
[7] = Inhibition of HIV1 reverse transcriptase K103N/Y188C double mutant infected in human MT4 cells assessed as protection against virus-induced cytopathic effect by MTT assay
[8] = Inhibition of wild-type HIV1 3B reverse transcriptase infected in human MT4 cells harboring GFP by scanning microscopic analysis
[9] = Inhibition of HIV1 reverse transcriptase Y181C mutant infected in human MT4 cells harboring GFP by scanning microscopic analysis
[10] = Inhibition of HIV1 reverse transcriptase K103N mutant infected in human MT4 cells harboring GFP by scanning microscopic analysis
[11] = Inhibition of HIV1 reverse transcriptase K103N/Y181C double mutant infected in human MT4 cells harboring GFP by scanning microscopic analysis
Reverse transcriptase = Reverse transcriptase (Human immunodeficiency virus 1, UniProt Q9WKE8); assay: Inhibition of CXCR4 tropic HIV1 3B reverse transcriptase infected in human TZM-bl cells
[12] = Inhibition of CCR5 tropic HIV1 VB59 reverse transcriptase infected in human TZM-bl cells
[13] = Inhibition of CCR5 tropic HIV1 ADA5 reverse transcriptase infected in human TZM-bl cells
[14] = Inhibition of CXCR4 tropic HIV1 UG070 reverse transcriptase infected in human TZM-bl cells
[15] = Inhibition of wild-type HIV1 3B reverse transcriptase infected in human MT4 cells assessed as protection against virus-induced cytopathic effect measured after 4 days by MTT assay
[16] = Inhibition of HIV1 reverse transcriptase K103N/Y188C double mutant infected in human MT4 cells assessed as protection against virus-induced cytopathic effect measured after 4 days by MTT assay
[17] = Inhibition of wild-type HIV1 3B reverse transcriptase infected in human MT4 cells assessed as protection against virus-induced cytopathic effect measured 5 days post infection by MTT assay
[18] = Inhibition of HIV1 reverse transcriptase K103N mutant infected in human MT4 cells assessed as protection against virus-induced cytopathic effect measured 5 days post infection by MTT assay
[19] = Inhibition of HIV1 reverse transcriptase E138K mutant infected in human MT4 cells assessed as protection against virus-induced cytopathic effect measured 5 days post infection by MTT assay
[20] = Inhibition of HIV1 reverse transcriptase K103N/Y188C double mutant infected in human MT4 cells assessed as protection against virus-induced cytopathic effect measured 5 days post infection by MTT assay
[21] = Inhibition of HIV1 3B reverse transcriptase infected in human MT2 cells assessed as protection against virus-induced cytopathic effect by MTT assay
[22] = Inhibition of HIV1 reverse transcriptase Y181C mutant infected in human MT2 cells assessed as protection against virus-induced cytopathic effect by MTT assay
[23] = Inhibition of HIV1 reverse transcriptase K103N/Y181C double mutant infected in human MT2 cells assessed as protection against virus-induced cytopathic effect by MTT assay
[24] = Inhibition of wild-type HIV1 3B reverse transcriptase infected in human MT4 cells assessed as protection against virus-induced cytopathic effect
[25] = Inhibition of HIV1 RES056 reverse transcriptase K103N/Y181C double mutant infected in human MT4 cells assessed as protection against virus-induced cytopathic effect
[26] = target: recombinant HIV1 reverse transcriptase Y188L mutant; assay: Inhibition of recombinant HIV1 reverse transcriptase Y188L mutant

Cc1cc(C#N)cc(C)c1Oc1nc(Nc2ccc(C#N)cc2)ncc1[N+](=O)[O-]
IC50 [1]: 18 nM
IC50 [2]: 121 nM
IC50 [3]: 782 nM
IC50 [4]: 10 nM
IC50 [5]: 304 nM
IC50 [6]: > 10000 nM
IC50 [7]: 194 nM

N#C/C=C/c1ccc(Nc2cc(NCCc3ccc(S(N)(=O)=O)cc3)nc(Nc3ccc(C#N)cc3)n2)cc1
EC50 [8]: 16 nM
EC50 [9]: 98 nM
EC50 [10]: 389 nM
EC50 [11]: 91 nM

Cc1cc(C)c(Nc2nc(Cl)nc(Nc3ccc(C#N)nc3)n2)c(C)c1
IC50 (Reverse transcriptase): 0.124 nM
IC50 [12]: 0.497 nM
IC50 [13]: 0.273 nM
IC50 [14]: 1.12 nM

C#Cc1cnc(Nc2ccc(C#N)cc2)nc1Nc1c(C)cc(C)cc1C
IC50 [4]: 6.2 nM
IC50 [6]: 71 nM
IC50 [7]: 42 nM

N#Cc1ccc(Nc2nccc(Oc3ccc4ccccc4c3Br)n2)cc1
EC50 [15]: 2.4 nM
EC50 [16]: 6570 nM

Cc1cc(C)c(Nc2nc(N)nc(Nc3ccc(C#N)nc3)n2)c(C)c1
IC50 (Reverse transcriptase): 0.131 nM
IC50 [12]: 0.183 nM
IC50 [13]: 0.183 nM
IC50 [14]: 0.784 nM

Cc1cc(C#N)cc(C)c1Oc1nc(Nc2ccc(C#N)cc2)ncc1N
IC50 [1]: 1 nM
IC50 [2]: 16 nM
IC50 [3]: 5.7 nM
IC50 [4]: 1.3 nM
IC50 [5]: 9.3 nM
IC50 [6]: 282 nM
IC50 [7]: 14 nM

Cc1cc(C#CCCO)cc(C)c1Oc1ccnc(Nc2ccc(C#N)cc2)n1
EC50 [17]: 3 nM

Cc1cc(C#N)cc(C)c1Oc1ccnc(Nc2ccc(C#N)cc2)n1
IC50 [1]: 1.1 nM
IC50 [2]: 73 nM
IC50 [3]: 19 nM
IC50 [4]: 2.7 nM
IC50 [5]: 37 nM
IC50 [6]: 798 nM
IC50 [7]: 94 nM

CN(C)CCNC(=O)c1cnc(Nc2ccc(C#N)cc2)nc1Nc1ccc(/C=C/C#N)cc1
EC50 [8]: 0.794 nM
EC50 [9]: 16 nM
EC50 [10]: 0.631 nM
EC50 [11]: 20 nM

Cc1cc(C#N)cc(C)c1Nc1ccnc(Nc2ccc(C#N)cc2)n1
IC50 [1]: 0.4 nM
IC50 [2]: 34 nM
IC50 [3]: 7.8 nM
IC50 [4]: 1.9 nM
IC50 [5]: 7.1 nM
IC50 [6]: 1090 nM
IC50 [7]: 37 nM

N#C/C=C/c1ccc(Nc2cc(NCCCN3CCOCC3)nc(Nc3ccc(C#N)cc3)n2)cc1
EC50 [8]: 20 nM
EC50 [9]: 87 nM
EC50 [10]: 219 nM
EC50 [11]: 98 nM

Cc1cc(C#Cc2cccnc2)cc(C)c1Oc1ccnc(Nc2ccc(C#N)cc2)n1
EC50 [17]: 3 nM
EC50 [18]: 10 nM
EC50 [19]: 22 nM
EC50 [20]: 935 nM

Cc1cc(C)c(Nc2nc(Nc3ccc(C#N)cc3)ncc2-c2ccccc2)c(C)c1
IC50 [1]: 24 nM

Cc1cc(C#N)cc(C)c1Nc1nc(Nc2ccc(C#N)cc2)ncc1C#N
IC50 [1]: 0.5 nM
IC50 [2]: 91 nM
IC50 [3]: 8.6 nM
IC50 [4]: 2.6 nM
IC50 [5]: 76 nM
IC50 [6]: 312 nM
IC50 [7]: 181 nM

N#C/C=C/c1cc(F)c(Nc2nc(NCCCN3CCOCC3)nc(Nc3ccc(C#N)cc3)n2)c(F)c1
EC50 [21]: 5.7 nM
EC50 [22]: 75 nM
EC50 [23]: 16 nM

N#Cc1ccc(Nc2cc(N)nc(Cc3c(Cl)cccc3Cl)n2)cc1
IC50 [1]: 452 nM
IC50 [2]: > 100000 nM
IC50 [3]: > 100000 nM
IC50 [4]: > 100000 nM
IC50 [5]: > 100000 nM

Cc1cc(C(C#N)c2ccccc2F)nc(Nc2ccc(C#N)cc2)n1 (configuration not stated)
EC50 [24]: 1.8 nM
EC50 [25]: > 217 nM

Cc1cc(C#N)cc(C)c1Nc1nc(Nc2ccc(C#N)cc2)ncc1Cl
IC50 [1]: 1.2 nM
IC50 [2]: 5.2 nM
IC50 [3]: 4.7 nM
IC50 [4]: 0.9 nM
IC50 [5]: 14 nM
IC50 [6]: 144 nM
IC50 [7]: 69 nM

N#Cc1ccc(Nc2nc(N)nc(Cc3c(Cl)cccc3Cl)n2)cc1
IC50 [1]: 6 nM
IC50 [2]: 398 nM
IC50 [3]: 316 nM
IC50 [4]: 40 nM
IC50 [5]: 200 nM

N#Cc1ccc(Nc2nc(N)cc(Cc3c(Cl)cccc3Cl)n2)cc1
IC50 [1]: 1 nM
IC50 [2]: 299 nM
IC50 [3]: 71 nM
IC50 [4]: 12 nM
IC50 [5]: 175 nM

N#Cc1ccc(Nc2cc(Cc3c(Cl)cccc3Cl)nc(N)n2)cc1
IC50 [1]: 10 nM
IC50 [2]: 96600 nM
IC50 [3]: > 100000 nM
IC50 [4]: 33300 nM
IC50 [5]: > 100000 nM

C=Cc1cnc(Nc2ccc(C#N)cc2)nc1Nc1c(C)cc(C)cc1C
IC50 [1]: 2.5 nM
IC50 [2]: 35 nM
IC50 [3]: 29 nM
IC50 [4]: 5.8 nM
IC50 [5]: 36 nM
IC50 [6]: > 100000 nM
IC50 [7]: 106 nM

Cc1cnc(Nc2ccc(C#N)cc2)nc1Nc1c(C)cc(C#N)cc1C
IC50 [1]: 0.8 nM
IC50 [2]: 16 nM
IC50 [3]: 16 nM
IC50 [4]: 1.7 nM
IC50 [5]: 12 nM
IC50 [6]: > 10000 nM
IC50 [7]: 162 nM

Cc1cc(Br)cc(C)c1Sc1ccnc(Nc2ccc(C#N)cc2)n1
IC50 [1]: 5.7 nM
IC50 [2]: 174 nM
IC50 [3]: 44 nM
IC50 [4]: 39 nM
IC50 [5]: 68 nM
IC50 [6]: 3890 nM
IC50 [7]: 354 nM

Cc1cc(C)c(Nc2cc(OCCCN3CCOCC3)nc(Nc3ccc(C#N)cc3)n2)c(C)c1
EC50 [22]: 480 nM
EC50 [23]: 38 nM

Cc1cc(C#N)cc(C)c1Nc1nc(Nc2ccc(C#N)cc2)ncc1Br
IC50 [1]: 0.4 nM
IC50 [2]: 7 nM
IC50 [3]: 3.3 nM
IC50 [4]: 0.4 nM
IC50 [5]: 9.6 nM
IC50 [6]: 37 nM
IC50 [7]: 32 nM

CCN(c1nc(Nc2ccc(C#N)cc2)nc(Oc2c(C)cc(C)cc2C)n1)N1CCOCC1
EC50 [17]: 7.8 nM
EC50 [20]: 650 nM

CC(=O)Nc1cnc(Nc2ccc(C#N)cc2)nc1Oc1c(C)cc(C#N)cc1C
IC50 [4]: 3.3 nM
IC50 [6]: 205 nM
IC50 [7]: 30 nM

Cc1cc(/C=C/C#N)cc(C)c1Nc1nc(Nc2ccc(C#N)cc2)nc(OCCCN2CCOCC2)n1
EC50 [22]: 12 nM
EC50 [23]: 1.3 nM

N#Cc1ccc(Nc2nccc(Oc3ccc4cc(C#N)ccc4c3Br)n2)cc1
EC50 [15]: 2 nM
EC50 [16]: 240 nM

Cc1cc(C)c(Nc2ccnc(Nc3ccc(C(N)=O)cc3)n2)c(C)c1
IC50 [26]: < 10000 nM

N#C/C=C/c1ccc(Nc2nc(Nc3ccc(C#N)cc3)ncc2C(=O)NCCCN2CCCC2)cc1
EC50 [8]: 0.794 nM
EC50 [9]: 20 nM
EC50 [10]: 1 nM
EC50 [11]: 16 nM
